Experimental data from PubChem BioAssay AID328 (DTP/NCI, 2004).
Values joined by “and” are separate entries in the source; they are usually repeats but may differ in a detail not shown here. Equal values may be shown once. Toxic doses and inconclusive results are not listed.

Test system: BDF1 mice, P388 leukemia ip, median survival T/C
Experiment: NCI In Vivo Anticancer Drug Screen. Data for tumor model P388 Leukemia (intraperitoneal) in B6D2F1 (BDF1) mice
Conditions: endpoint: median survival time, higher = longer survival
In short: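 In tumour-bearing mice, survival after compound treatment is set against the vehicle group and given as a quotient.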

[1] = dose: 50.0 mg/kg/injection, schedule: Q01DX009 (ip), vehicle: other
[2] = dose: 100.0 mg/kg/injection, schedule: Q01DX009 (ip), vehicle: other
[3] = dose: 200.0 mg/kg/injection, schedule: Q01DX009 (ip), vehicle: other
[4] = dose: 15.0 mg/kg/injection, schedule: Q01DX009 (ip), vehicle: saline with Tween-80
[5] = dose: 30.0 mg/kg/injection, schedule: Q01DX009 (ip), vehicle: saline with Tween-80
[6] = dose: 60.0 mg/kg/injection, schedule: Q01DX009 (ip), vehicle: saline with Tween-80
[7] = dose: 25.0 mg/kg/injection, schedule: Q01DX009 (ip), vehicle: saline with Tween-80
[8] = dose: 100.0 mg/kg/injection, schedule: Q04DX003 (ip), vehicle: Klucel (hydroxypropylcellulose) (HPC)
[9] = dose: 200.0 mg/kg/injection, schedule: Q04DX003 (ip), vehicle: Klucel (hydroxypropylcellulose) (HPC)
[10] = dose: 50.0 mg/kg/injection, schedule: Q01DX009 (ip), vehicle: saline with Tween-80
[11] = dose: 100.0 mg/kg/injection, schedule: Q01DX009 (ip), vehicle: saline with Tween-80
[12] = dose: 200.0 mg/kg/injection, schedule: Q01DX009 (ip), vehicle: saline with Tween-80
[13] = dose: 12.5 mg/kg/injection, schedule: Q01DX009 (ip), vehicle: saline with Tween-80
[14] = dose: 25.0 mg/kg/injection, schedule: Q01DX009 (ip), vehicle: Klucel (hydroxypropylcellulose) (HPC)
[15] = dose: 50.0 mg/kg/injection, schedule: Q01DX009 (ip), vehicle: Klucel (hydroxypropylcellulose) (HPC)
[16] = dose: 100.0 mg/kg/injection, schedule: Q04DX003 (ip), vehicle: saline sonified
[17] = dose: 200.0 mg/kg/injection, schedule: Q04DX003 (ip), vehicle: saline sonified
[18] = dose: 400.0 mg/kg/injection, schedule: Q04DX003 (ip), vehicle: saline sonified
[19] = dose: 100.0 mg/kg/injection, schedule: Q01DX009 (ip), vehicle: Klucel (hydroxypropylcellulose) (HPC)
[20] = dose: 400.0 mg/kg/injection, schedule: Q01DX009 (ip), vehicle: other

## CS(=O)(=O)Nc1ccccc1O
[1]
  T/C: 96 % of control
[2]
  T/C: 104 % of control
[3]
  T/C: 97 % of control

## Cc1ccc(S(=O)(=O)c2ccc(Sc3cccc[n+]3[O-])c3no[n+]([O-])c23)cc1
[4]
  T/C: 97 % of control
[5]
  T/C: 114 % of control
[6]
  T/C: 90 % of control

## COc1ccc(N=NNc2ccc(OC)cc2)cc1
[7]
  T/C: 154 % of control
dose: 37.5 mg/kg/injection, schedule: Q01DX009 (ip), vehicle: saline with Tween-80
  T/C: 155 % of control and 166 % of control

## CC(=N\O)/C(C)=N/O.CC(=N\O)/C(C)=N/O.O.[CH3-].[Co]
dose: 6.25 mg/kg/injection, schedule: Q01DX009 (ip), vehicle: saline
  T/C: 100 % of control
dose: 12.5 mg/kg/injection, schedule: Q01DX009 (ip), vehicle: saline
  T/C: 97 % of control

## Cc1cc(=O)n(Cc2ccccc2)c(O)c1C
[8]
  T/C: 102 % of control
[9]
  T/C: 94 % of control

## C/C(=C\Cl)CN(C)C
dose: 56.25 mg/kg/injection, schedule: Q01DX001 (ip), vehicle: saline
  T/C: 100 % of control
dose: 56.25 mg/kg/injection, schedule: Q04DX003 (ip), vehicle: saline
  T/C: 95 % of control
dose: 112.5 mg/kg/injection, schedule: Q01DX001 (ip), vehicle: saline
  T/C: 86 % of control
dose: 112.5 mg/kg/injection, schedule: Q04DX003 (ip), vehicle: saline
  T/C: 90 % of control
dose: 150.0 mg/kg/injection, schedule: Q01DX009 (ip), vehicle: saline
  T/C: 105 % of control
dose: 225.0 mg/kg/injection, schedule: Q01DX001 (ip), vehicle: saline
  T/C: 100 % of control
dose: 225.0 mg/kg/injection, schedule: Q01DX009 (ip), vehicle: saline
  T/C: 105 % of control

## CCOC(=O)c1cccc2cccc(C(=O)OCC)c12
[7]
  T/C: 106 % of control
[10]
  T/C: 92 % of control
[11]
  T/C: 114 % of control
[12]
  T/C: 100 % of control

## CS(=O)CC(O)(c1ccccc1)c1ccncc1 (stereo unspecified)
[10]
  T/C: 99 % of control
[11]
  T/C: 112 % of control
[12]
  T/C: 110 % of control

## O=[N+]([O-])c1ccc(N=Nc2c(Cl)cc(O)cc2Cl)cc1
dose: 3.13 mg/kg/injection, schedule: Q01DX009 (ip), vehicle: saline with Tween-80
  T/C: 95 % of control
dose: 6.25 mg/kg/injection, schedule: Q01DX009 (ip), vehicle: Klucel (hydroxypropylcellulose) (HPC)
  T/C: 115 % of control
dose: 6.25 mg/kg/injection, schedule: Q01DX009 (ip), vehicle: saline with Tween-80
  T/C: 95 % of control
dose: 12.5 mg/kg/injection, schedule: Q01DX009 (ip), vehicle: Klucel (hydroxypropylcellulose) (HPC)
  T/C: 110 % of control
[13]
  T/C: 95 % of control
[14]
  T/C: 115 % of control
dose: 35.0 mg/kg/injection, schedule: Q01DX009 (ip), vehicle: Klucel (hydroxypropylcellulose) (HPC)
  T/C: 94 % of control
[15]
  T/C: 97 % of control
dose: 75.0 mg/kg/injection, schedule: Q01DX009 (ip), vehicle: Klucel (hydroxypropylcellulose) (HPC)
  T/C: 118 % of control
[11]
  T/C: 120 % of control
[16]
  T/C: 100 % of control
[17]
  T/C: 100 % of control
[18]
  T/C: 100 % of control

## CSc1nc(N)cc(NC(=O)CCl)n1
[14]
  T/C: 113 % of control
[15]
  T/C: 95 % of control
[10]
  T/C: 100 % of control
dose: 50.0 mg/kg/injection, schedule: Q04DX003 (ip), vehicle: Klucel (hydroxypropylcellulose) (HPC)
  T/C: 113 % of control
[19]
  T/C: 122 % of control
[11]
  T/C: 100 % of control
[8]
  T/C: 118 % of control

## CCCN(Cc1ccc(CN(CCC)C(=O)C(Cl)Cl)cc1)C(=O)C(Cl)Cl
dose: 100.0 mg/kg/injection, schedule: Q04DX003 (ip), vehicle: saline with Tween-80
  T/C: 93 % of control
dose: 200.0 mg/kg/injection, schedule: Q04DX003 (ip), vehicle: saline with Tween-80
  T/C: 95 % of control
dose: 400.0 mg/kg/injection, schedule: Q04DX003 (ip), vehicle: saline with Tween-80
  T/C: 88 % of control

## O=C(O)/C=C/c1ccc(-c2cc(C(F)(F)F)cc(C(F)(F)F)c2)o1
[10]
  T/C: 108 % of control
[11]
  T/C: 90 % of control
[12]
  T/C: 106 % of control

## CC(=O)Nc1ccc(/C=N/Nc2ccc([N+](=O)[O-])cn2)cc1
dose: 62.5 mg/kg/injection, schedule: Q01DX010 (ip), vehicle: saline
  T/C: 95 % of control
[16]
  T/C: 105 % of control
dose: 125.0 mg/kg/injection, schedule: Q01DX010 (ip), vehicle: saline
  T/C: 90 % of control
[17]
  T/C: 105 % of control
dose: 250.0 mg/kg/injection, schedule: Q01DX010 (ip), vehicle: saline
  T/C: 100 % of control
[18]
  T/C: 100 % of control

## CC(=O)Oc1c(Br)c(-c2cc([N+](=O)[O-])c(C)c([N+](=O)[O-])c2C)c(OC(C)=O)c(Br)c1-c1cc([N+](=O)[O-])c(C)c([N+](=O)[O-])c1C
dose: 50.0 mg/kg/injection, schedule: Q01DX001 (ip), vehicle: Klucel (hydroxypropylcellulose) (HPC)
  T/C: 112 % of control
dose: 100.0 mg/kg/injection, schedule: Q01DX001 (ip), vehicle: Klucel (hydroxypropylcellulose) (HPC)
  T/C: 115 % of control
dose: 200.0 mg/kg/injection, schedule: Q01DX001 (ip), vehicle: Klucel (hydroxypropylcellulose) (HPC)
  T/C: 115 % of control
dose: 400.0 mg/kg/injection, schedule: Q01DX001 (ip), vehicle: Klucel (hydroxypropylcellulose) (HPC)
  T/C: 106 % of control

## C[C@@H]1C[C@@]2(C)[C@@H](CC[C@@H]3[C@@H]2CC[C@]2(C)[C@@H](OC4CCCCO4)CC[C@@H]32)CC1=O (stereo partly specified)
[14]
  T/C: 88 % of control
[15]
  T/C: 92 % of control
[19]
  T/C: 88 % of control and 100 % of control
[8]
  T/C: 86 % of control and 91 % of control
dose: 200.0 mg/kg/injection, schedule: Q01DX009 (ip), vehicle: Klucel (hydroxypropylcellulose) (HPC)
  T/C: 87 % of control and 100 % of control
[9]
  T/C: 87 % of control and 95 % of control
dose: 400.0 mg/kg/injection, schedule: Q01DX009 (ip), vehicle: Klucel (hydroxypropylcellulose) (HPC)
  T/C: 105 % of control
dose: 400.0 mg/kg/injection, schedule: Q04DX003 (ip), vehicle: Klucel (hydroxypropylcellulose) (HPC)
  T/C: 90 % of control and 91 % of control

## COc1cc(/C=N\N=C\c2ccc(O)c(OC)c2)ccc1O
dose: 100.0 mg/kg/injection, schedule: Q01DX001 (ip), vehicle: saline with Tween-80
  T/C: 100 % of control
dose: 200.0 mg/kg/injection, schedule: Q01DX001 (ip), vehicle: saline with Tween-80
  T/C: 104 % of control
dose: 400.0 mg/kg/injection, schedule: Q01DX001 (ip), vehicle: saline with Tween-80
  T/C: 100 % of control

## COC(=O)CCCc1c[nH]c2ccccc12
[2]
  T/C: 103 % of control
[3]
  T/C: 94 % of control
[20]
  T/C: 86 % of control

## C/C(=N/S(=O)(=O)c1ccc(C)cc1)OCCN(C)C
dose: 1.5 mg/kg/injection, schedule: Q01DX009 (ip), vehicle: saline with Tween-80
  T/C: 104 % of control
dose: 3.0 mg/kg/injection, schedule: Q01DX009 (ip), vehicle: saline with Tween-80
  T/C: 109 % of control
dose: 3.0 mg/kg/injection, schedule: Q04DX003 (ip), vehicle: saline with Tween-80
  T/C: 100 % of control
dose: 6.0 mg/kg/injection, schedule: Q01DX009 (ip), vehicle: saline with Tween-80
  T/C: 118 % of control
dose: 6.0 mg/kg/injection, schedule: Q04DX003 (ip), vehicle: saline with Tween-80
  T/C: 100 % of control

## NC(CSCc1ccccc1)(CSCc1ccccc1)C(=O)O
dose: 12.5 mg/kg/injection, schedule: Q01DX009 (ip), vehicle: other
  T/C: 103 % of control
dose: 25.0 mg/kg/injection, schedule: Q01DX009 (ip), vehicle: other
  T/C: 122 % of control
[1]
  T/C: 97 % of control and 110 % of control
[2]
  T/C: 117 % of control
[3]
  T/C: 96 % of control
[20]
  T/C: 94 % of control

## Cc1ccc(C(=O)CCl)c(C)c1
[13]
  T/C: 100 % of control
[7]
  T/C: 100 % of control
[10]
  T/C: 95 % of control

## CNc1ccc([N+](=O)[O-])c2no[n+]([O-])c12
[4]
  T/C: 90 % of control
[5]
  T/C: 93 % of control
[6]
  T/C: 102 % of control

## CC(=O)OCC(=O)[C@@]1(O)CC[C@H]2[C@@H]3C[C@H](C)C4=CC(=O)CC[C@]4(C)[C@H]3[C@@H](O)C[C@@]21C
dose: 400.0 mg/kg/injection, schedule: Q01DX009 (ip), vehicle: saline with Tween-80
  T/C: 90 % of control

## Br/C(C=Nc1ccccc1)=C\Nc1ccccc1
[11]
  T/C: 100 % of control
[12]
  T/C: 110 % of control
